Results published in ChEMBL document CHEMBL3526110, “Preclinical evaluation of the metabolism and disposition of RRx-001, a novel investigative anticancer agent” (Drug Metab Dispos, 2012).

What was measured:
Blood [1] = test: Retention time in human whole blood in presence of 0.1% formic acid in acetonitrile at 20 uM by LC-MS/MS method; type: ADME, tissue-based
Blood [2] = test: Retention time in human whole blood in presence of 0.1% formic acid in water at 20 uM by LC-MS/MS method; type: ADME, tissue-based
[3] = Drug level assessed as compound formation from RRx-001 after 1 hr in presence of reduced GSH at pH 7.8 by LC-MS/MS method; type: physicochemical; settings: pH 7.8, 1 h
Blood [4] = test: Retention time in rat whole blood in presence of 0.1% formic acid in acetonitrile at 20 uM by LC-MS/MS method; type: ADME, tissue-based
Blood [5] = test: Drug metabolism in rat whole blood treated with 20 uM RRx-001 assessed as compound formation by LC-MS/MS method; type: ADME, tissue-based
Blood [6] = test: Drug metabolism in human whole blood treated with 20 uM RRx-001 assessed as compound formation by LC-MS/MS method; type: ADME, tissue-based
Blood [7] = test: Retention time in rat whole blood in presence of 0.1% formic acid in water at 20 uM by LC-MS/MS method; type: ADME, tissue-based

**Q.** With `N[C@@H](CSCC(=O)N1CC([N+](=O)[O-])([N+](=O)[O-])C1)C(=O)O` as the compound, how does the Retention_time (Blood [1]) read?
**A.** 7.6 min

**Q.** And the Retention_time (Blood [2])?
**A.** 7.8 min

**Q.** What about the Drug metabolism [3] of the same compound?
**A.** metabolite_detected

**Q.** And the Retention_time (Blood [4])?
**A.** 7.6 min

**Q.** What about the Drug metabolism (Blood [5]) of the same compound?
**A.** metabolite_detected

**Q.** And the Drug metabolism (Blood [6])?
**A.** metabolite_detected

**Q.** And the Retention_time (Blood [7])?
**A.** 7.8 min
